Results published in US20260091136A1, “USING ENHO GENE THERAPY TO TREAT CARDIOMETABOLIC DISEASE” (University of Pittsburgh-of the Commonwealth System of …, priority 2023, published 2026).
Entries after “also recorded” stand apart in the source; their conditions may differ.

Assays:
HFpEF mice [1] = assay: Intraperitoneal glucose tolerance test (IPGTT), cohort 2; format: in vivo, C57BL/6J mice
From the text: Twelve week-old C57BL/6J wild-type male mice were exposed to normal chow, or a combination of 60% high fat diet plus N^ω-nitro-L-arginine methyl ester (L-NAME: 0.5 g/L in drinking water) to induce HFpEF. After 8 weeks of diet, mice were randomly assigned to a control HFpEF group, or to a group receiving daily intraperitoneal injections of recombinant Adropin (450 nmol/kg) for the remaining weeks of the study. All animal experiments were approved by the University of Pittsburgh Institutional Animal Care and Use Committee. […] These changes occurred in the absence of systolic dysfunction (FIG. 6). Each marker of cardiac dysfunction was absent in HFpEF mice treated with Adropin (FIG. 6).
Animal Care and Use. Male C57BL/6J 8-week-old mice were obtained from the Jackson Laboratory and maintained on chow for 4 weeks to acclimate to their new environment. Animals were housed in the University of Pittsburgh animal facility under standard conditions with ad libitum access to water and food and maintained on a constant 12-hour light/dark cycle. […]
Intraperitoneal Glucose Tolerance Test (IPGTT). […] Blood glucose was measured by tail bleed at set time points using a Bayer Contour Next EZ handheld glucometer (t=15, 30, 45, 60, and 120 min).

HFpEF mice [2] = assay: Heart, lung and liver mass after four weeks of Adropin in HFpEF mice (Example 1); format: in vivo
Method: Administration of Recombinant Adropin. Mice received low-fat chow or HFpEF diet for 10 weeks. For the following 4 weeks, the mice were maintained on respective diets and received daily injections of recombinant Adropin. Body weight was measured every day during the four weeks of treatment.

Substance: Adropin: recombinant Adropin peptide hormone encoded by the ENHO gene; full-length (SEQ ID NO: 1) or cleaved product of amino acids 34-76 (SEQ ID NO: 2) (CHSRSADVDSLSESSPNSSPGPCPEKAPPPQKPSHEGSYLLQP)
- increase in circulating blood glucose levels (IPGTT) (HFpEF mice [1]; HFpEF increase vs chow, after adropin treatment): significantly attenuated
- whole-body glucose tolerance / sensitivity (HFpEF mice [1]; HFpEF+Adropin vs HFpEF, 450 nmol/kg daily i.p.): significantly restored; also recorded: significantly improves
- lung or liver mass (HFpEF mice [2]; after 4 weeks): no differences were observed
- average LV mass (FIG. 3A; cardiac hypertrophy) (HFpEF mice [2]; following 4 weeks of Adropin, vs HFpEF mice without treatment): lower; also recorded: reduces
